Experimental data published in patent publication US11999746B2, “Compounds” (GlaxoSmithKline Intellectual Property Development Limited, priority 2014, dated 2024).
Read-outs that look alike come from different tables or passages of the source.

Key:
Lp-PLA2 in human plasma = biological target: T1, Lp-PLA2 in human plasma (Homo sapiens, UniProt Q13093); assay: (3b) Lp-PLA2 human plasma alternative Thio-PAF assay; type: biochemical; conditions: pooled human plasma, read-out: pIC50 in the Lp-PLA2 human plasma assay (converted)
T1 construct: from tissue; host or cells: pooled human plasma
T1 sequence (Q13093 22-441): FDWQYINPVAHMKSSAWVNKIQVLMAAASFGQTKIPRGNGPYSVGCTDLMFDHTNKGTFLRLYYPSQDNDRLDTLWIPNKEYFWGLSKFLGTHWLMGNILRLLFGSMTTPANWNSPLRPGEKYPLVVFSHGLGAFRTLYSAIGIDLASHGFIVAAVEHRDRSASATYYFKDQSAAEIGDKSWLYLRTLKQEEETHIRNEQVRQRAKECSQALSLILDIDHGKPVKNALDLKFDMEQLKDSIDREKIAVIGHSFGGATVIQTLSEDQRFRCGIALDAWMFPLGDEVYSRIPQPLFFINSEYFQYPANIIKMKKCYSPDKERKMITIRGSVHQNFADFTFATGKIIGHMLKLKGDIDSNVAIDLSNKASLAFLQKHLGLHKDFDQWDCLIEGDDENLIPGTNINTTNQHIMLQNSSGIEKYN
Experimental: (3b) Alternative Thio-PAF Assay
The human plasma assay utilizes the same thioester analog of PAF as described in (1b) “hr ThioPAF” assay. This assay may detect the activity of Lp-PLA2 in human plasma, as determined by specific inhibition by Lp-PLA2 inhibitors.
The thio-PAF assay was run as a quenched 20 μL assay. Compounds source plate was prepared by making 1:3 (by volume) serial dilution of the compounds into pure DMSO on 96-well microplate. 5 μL of compounds on compound source plate were transferred to 96-well Corning 3686 (black) low-volume plates by STAR+(Hamilton) liquid dispenser. 10 μL pooled human plasma, which was previously aliquoted and frozen, was added. Plates were centrifuged for 30 sec at 1000 rpm. After 15 minutes preincubation at room temperature, 5 μL of substrate solution comprising 2 mM 2-thio-PAF [from ethanol stock], 52 μM CPM [from a DMSO stock] and 2.5 mM NEM (N-ethylmaleimide) [made fresh daily in DMSO] in assay buffer (50 mM HEPES, pH 7.4, 150 mM NaCl, 1 mM CHAPS) was added to 96-well Corning 3686 (black) low-volume plates. After 3 mins, reaction was quenched with 10 μL of 5% aqueous trifluoroacetic acid (TFA). Plates were centrifuged 30 sec at 1000 rpm, covered to protect from light and incubated for 10 min at room temperature. Plates were read at ex: 380 nm/em: 485 nm using Envision plate reader (Perkin Elmer). Raw data were transferred to Excel software and pIC50 data, curve and QC analysis was conducted by using XL fit module in Excel.

[1] = biological target: T2, recombinant human Lp-PLA2 (Homo sapiens, UniProt Q13093); assay: (1b) hrThioPAF assay, recombinant human Lp-PLA2; type: biochemical; conditions: Examples 266-412 were tested here, one experiment or average of multiple experiments, read-out: rhLp-PLA2 (pIC50) (converted)
T2 sequence (Q13093 22-441): T1 sequence (Q13093 22-441)
Text: 1-O-Hexadecyl-2-deoxy-2-thio-S-acetyl-sn-glyceryl-3-phosphorylcholine (2-thio-PAF) is a substrate for PAF-hydrolases (PAF-AH) commercially available from Cayman Chemical. Upon cleavage with PAF-AH, the free thiol is released at the sn-2 position and can then react with 7-diethylamino-3-(4′-maleimidylphenyl)-4-methylcoumarin (CPM) a thiol-reactive coumarin. This reaction (Michael addition) results in an increase in fluorescence. Inhibitors of Lp-PLA2 therefore prevent this cleavage and no fluorescent increase is observed.
The Thio-PAF assay was run as an unquenched 20 μL assay. The source plate containing the compounds to be tested was prepared by making 1:3 (by volume) serial dilution of the compounds within DMSO on 384-well microplate. Then, 5 μL of the compounds on compound source plate were transferred into 384 well Greiner 784076 (black) plates using STAR+(Hamilton) liquid dispenser. 10 μL of recombinant human Lp-PLA2 enzyme (20 pM rhLp-PLA2 in assay buffer of 50 mM HEPES, pH 7.4, 150 mM NaCl, 1 mM CHAPS) was added to each well of the plate. 5 μL of substrate comprising 40 μM 2-thio-PAF [from ethanol stock], 40 μM CPM [from a DMSO stock] and 400 μM NEM (N-ethylmaleimide) [made fresh daily in DMSO] in assay buffer (50 mM HEPES, pH 7.4, 150 mM NaCl, 1 mM CHAPS) was added to 384 well Greiner 784076 black plates. Plates were vortexed for 10 sec. The plate was covered to protect it from light and incubated for 20 min at 25° C. The plates were read for fluorescence intensity at ex: 380 nm/em: 485 nm using Envision plate reader (Perkin Elmer). Raw data were transferred to Excel software and pIC50 data, curve and QC analysis was conducted by using XL fit module in Excel.

[2] = (3b) alternative Thio-PAF assay, Examples of 266-412 were tested here
[3] = (3a) Thio-PAF assay, Examples 1-265 and 413-430 were tested here

SMILES | IC50 (Lp-PLA2 in human plasma; [2]) | IC50 [1] | IC50 (Lp-PLA2 in human plasma; [3])
CCOC(=O)C(C)N1CCN2c3cc(OCc4ccc(F)c(F)c4)nc(=O)n3CC2C1 (single isomer, unassigned) [Example E327, Ethyl 2-(7-((3,4-difluorobenzyl)oxy)-9-oxo-3,4,11,11a-tetrahydro-1H-pyrazino[1′,2′:3,4]imidazo[1,2-c]pyrimidin-2(9H)-yl)propanoate] | ≤ 100 nM |  | 
CN1c2cc(OCc3ccc(F)c(F)c3)nc(=O)n2CC12COC2 [Example 398, 7-((3,4-Difluorobenzyl)oxy)-1-methyl-1H-spiro[imidazo[1,2-c]pyrimidine-2,3′-oxetan]-5(3H)-one] | ≤ 100 nM | ≤ 10000 nM | 
Cc1ccc(Oc2c(F)cc(COc3cc4n(c(=O)n3)CC3(COC3)N4C)cc2C#N)cn1 [Example 399, 3-Fluoro-5-(((1-methyl-5-oxo-3,5-dihydro-1H-spiro[imidazo[1,2-c]pyrimidine-2,3′-oxetan]-7-yl)oxy)methyl)-2-((6-methylpyridin-3-yl)oxy)benzonitrile] | ≤ 100 nM | ≤ 10000 nM | 
Cc1ccc(Oc2c(F)cc(COc3cc4n(c(=O)n3)CC3(COC3)N4C)cc2F)cn1 [Example 400, 7-((3,5-Difluoro-4-((6-methylpyridin-3-yl)oxy)benzyl)oxy)-1-methyl-1H-spiro[imidazo[1,2-c]pyrimidine-2,3′-oxetan]-5(3H)-one] | ≤ 100 nM | ≤ 10000 nM | 
O=c1nc(OCc2cc(F)c(Oc3cncc(C(F)(F)F)c3)c(F)c2)cc2n1CC1(CCOCC1)N2 [Example 401, 7-((3,5-Difluoro-4-((5-(trifluoromethyl)pyridin-3-yl)oxy)benzyl)oxy)-2′,3′,5′,6′-tetrahydro-1H-spiro[imidazo[1,2-c]pyrimidine-2,4′-pyran]-5(3H)-one] | ≤ 100 nM | 0.631 nM | 
O=c1nc(OCc2ccc(F)c(F)c2)cc2n1CC1(CCOCC1)N2 [Example 402, 7-((3,4-Difluorobenzyl)oxy)-2′,3′,5′,6′-tetrahydro-1H-spiro[imidazo[1,2-c]pyrimidine-2,4′-pyran]-5(3H)-one] | ≤ 100 nM | ≤ 10000 nM | 
Cc1ccc(Oc2c(F)cc(COc3cc4n(c(=O)n3)CC3(CCOCC3)N4)cc2F)cn1 [Example 403, 7-((3,5-Difluoro-4-((6-methylpyridin-3-yl)oxy)benzyl)oxy)-2′,3′,5′,6′-tetrahydro-1H-spiro[imidazo[1,2-c]pyrimidine-2,4′-pyran]-5(3H)-one] | ≤ 100 nM | ≤ 10000 nM | 
Cc1ccc(Oc2c(F)cc(COc3cc4n(c(=O)n3)CC3(CCOCC3)N4C)cc2F)cn1 [Example 405, 7-((3,5-Difluoro-4-((6-methylpyridin-3-yl)oxy)benzyl)oxy)-1-methyl-2′,3′,5′,6′-tetrahydro-1H-spiro[imidazo[1,2-c]pyrimidine-2,4′-pyran]-5(3H)-one] | ≤ 100 nM | ≤ 100 nM | 
O=c1nc(OCc2ccc(F)c(F)c2)cc2n1CC1(CCNCC1)N2 [Example 406, 7-((3,4-Difluorobenzyl)oxy)-1H-spiro[imidazo[1,2-c]pyrimidine-2,4′-piperidin]-5(3H)-one] | ≤ 100 nM | ≤ 10000 nM | 
CC(=O)N1CCC2(CC1)Cn1c(cc(OCc3ccc(F)c(F)c3)nc1=O)N2C(C)=O [Example 408, 1,1-(7-((3,4-difluorobenzyl)oxy)-5-oxo-1H-spiro[imidazo[1,2-c]pyrimidine-2,4′-piperidin]-1,1′(3H,5H)-diyl)diethanone] | ≤ 100 nM | ≤ 10000 nM | 
O=c1nc(OCc2cc(F)c(Oc3cncc(C(F)(F)F)c3)c(F)c2)cc2n1CC1(CCN(Cc3ccccc3)CC1)N2 [Example 411, 1′-Benzyl-7-((3,5-difluoro-4-((5-(trifluoromethyl)pyridin-3-yl)oxy)benzyl)oxy)-1H-spiro[imidazo[1,2-c]pyrimidine-2,4′-piperidin]-5(3H)-one] | ≤ 100 nM | ≤ 1 nM | ≤ 10000 nM
N#Cc1cc(COc2cc3n(c(=O)n2)CC2(CCN(Cc4ccccc4)CC2)N3)ccc1F [Example 412, 5-(((1′-Benzyl-5-oxo-3,5-dihydro-1H-spiro[imidazo[1,2-c]pyrimidine-2,4′-piperidin]-7-yl)oxy)methyl)-2-fluorobenzonitrile] |  | ≤ 10000 nM | ≤ 10000 nM
N#Cc1cc(COc2cc3n(c(=O)n2)CC2CNCCN32)ccc1F (centres unmarked) [Example E266, 2-Fluoro-5-(((9-oxo-2,3,4,9,11,11a-hexahydro-1H-pyrazino[1′,2′:3,4]imidazo[1,2-c]pyrimidin-7-yl)oxy)methyl)benzonitrile] | ≤ 100 nM | ≤ 100 nM | 
O=c1nc(OCc2ccc(Oc3ccnc(C(F)(F)F)c3)c(F)c2)cc2n1CC1CNCCN21 (centres unmarked) [Example E267, 7-((3-Fluoro-4-((2-(trifluoromethyl)pyridin-4-yl)oxy)benzyl)oxy)-3,4,11,11a-tetrahydro-1H-pyrazino[1′,2′:3,4] imidazo [1,2-c]pyrimidin-9(2H)-one] | ≤ 100 nM | ≤ 100 nM | 
O=C(O)C(F)(F)F.[2H]C1([2H])C2CNCCN2c2cc(OCc3ccc(F)c(C#N)c3)nc(=O)n21 (centres unmarked) [Example E269, 5-(((11,11-Dideutero-9-oxo-2,3,4,9,11,11a-hexahydro-1H-pyrazino[1′,2′:3,4]imidazo [1,2-c]pyrimidin-7-yl)oxy)methyl)-2-fluorobenzonitrile 2,2,2-trifluoroacetate] | ≤ 100 nM | ≤ 10000 nM | 
O=c1nc(OCc2cc(F)c(Oc3ccnc(C(F)(F)F)c3)c(F)c2)cc2n1CC1CNCCN21 (centres unmarked) [Example E270, 7-((3,5-Difluoro-4-((2-(trifluoromethyl)pyridin-4-yl)oxy)benzyl)oxy)-3,4,11,11a-tetrahydro-1H-pyrazino[1′,2′:3,4] imidazo [1,2-c]pyrimidin-9(2H)-one] | ≤ 100 nM | ≤ 10000 nM | 
N#Cc1cccc(COc2cc3n(c(=O)n2)CC2CNCCN32)c1 (centres unmarked) [Example E272, 3-(((9-Oxo-2,3,4,9,11,11a-hexahydro-1H-pyrazino[1′,2′:3,4]imidazo [1,2-c]pyrimidin-7-yl)oxy)methyl) benzonitrile] | ≤ 100 nM | ≤ 10000 nM | 
O=c1nc(OCc2cc(F)c(Oc3cncc(C(F)(F)F)c3)c(F)c2)cc2n1CC1CNCCN21 (centres unmarked) [Example E273, 7-((3,5-Difluoro-4-((5-(trifluoromethyl)pyridin-3-yl)oxy)benzyl)oxy)-3,4,11,11a-tetrahydro-1H-pyrazino[1′,2′:3,4] imidazo [1,2-c]pyrimidin-9(2H)-one] | ≤ 100 nM | ≤ 1 nM | 
O=c1nc(OCc2ccc(F)c(F)c2)cc2n1CC1CNCCN21 (centres unmarked) [Example E274, 7-((3,4-Difluorobenzyl)oxy)-3,4,11,11a-tetrahydro-1H-pyrazino[1′,2′:3,4] imidazo [1,2-c]pyrimidin-9(2H)-one] | ≤ 100 nM | ≤ 100 nM | 
